# Measured values from article PMC10960024, “Diindoles produced from commensal microbiota metabolites function as endogenous CAR/Nr1i3 ligands” (Nature Communications, 2024).
# Where “and” joins values, the source holds several entries; their conditions need not be identical. Equal entries are not always repeated.
# Assays:
# Liver histology (H&E) = format: in vivo; conditions: mouse, in vivo
# Procedure: 12–15 week-old C57BL/6 J mice were obtained from Jackson Laboratories and were housed on a standard 12 h light/dark cycle. Nr1i3^−/− mice with C57BL/6 J background were obtained from David Moore’s lab (PMID: 11057673) at Baylor College of Medicine, and used at 13–26 weeks of age. Wild-type male, female and Nr1i3^−/− male mice were used in this study, due to known sex-specific CAR activities. Mice were housed in groups of 2–5 mice per cage on a standard 12 h light/dark cycle and fed with rodent chow diet (Inotiv, Teklad rodent diet 2918). Temperature was maintained at 21 °C with a range of 21–24 °C and humidity at 16–51%. National Institute of Health guidelines for the care and use of laboratory animals were followed with all experiments performed as directed by the Institutional Animal Care and Use Committee at the University of Illinois, Urbana-Champaign (UIUC, IACUC protocol: 22183). Mice were acclimatized to the UIUC mouse facility for 2 weeks prior to experiments. DIM and DIE were dissolved in 5% DMSO in corn oil and injected intraperitoneally at 25 mg/kg once daily for three days. After 4 h of the third injection, mice were sacrificed to collect serum, livers and intestines. TCPOBOP was dissolved in corn oil and injected intraperitoneally at 3 mg/kg once and the livers collected after 3 days for further studies. When used to block CAR activity, 100 mg/kg androstenol was injected intraperitoneally 15 min prior to the first DIM or DIE treatment. RNA from mice livers was isolated using TRIzol (Invitrogen) reagent using the manufacturer’s instructions. 3–5 µg of RNA was used to synthesize cDNA with random primers (NEBioLabs) and Maxima Reverse Transcriptase kits (Thermo Fisher Scientific). cDNA was further diluted, and 50 ng was used for SYBR green (Thermo Fisher Scientific) based qRT-PCR. Relative gene expression was calculated by the delta Ct method and normalized to 36b4 levels as loading controls. qPCR primers for gene expression analysis are listed in Supplementary Table 3. […]
# [1] = test system: mCAR target genes (cyp2b10, cyp3a11, sult2a1) in mouse liver; assay: qPCR of mCAR target genes in mouse liver after intraperitoneal treatment; format: in vivo
# Procedure: (§1) 12–15 week-old C57BL/6 J mice were obtained from Jackson Laboratories and were housed on a standard 12 h light/dark cycle. Nr1i3^−/− mice with C57BL/6 J background were obtained from David Moore’s lab (PMID: 11057673) at Baylor College of Medicine, and used at 13–26 weeks of age. Wild-type male, female and Nr1i3^−/− male mice were used in this study, due to known sex-specific CAR activities. Mice were housed in groups of 2–5 mice per cage on a standard 12 h light/dark cycle and fed with rodent chow diet (Inotiv, Teklad rodent diet 2918). Temperature was maintained at 21 °C with a range of 21–24 °C and humidity at 16–51%. National Institute of Health guidelines for the care and use of laboratory animals were followed with all experiments performed as directed by the Institutional Animal Care and Use Committee at the University of Illinois, Urbana-Champaign (UIUC, IACUC protocol: 22183). Mice were acclimatized to the UIUC mouse facility for 2 weeks prior to experiments. DIM and DIE were dissolved in 5% DMSO in corn oil and injected intraperitoneally at 25 mg/kg once daily for three days. After 4 h of the third injection, mice were sacrificed to collect serum, livers and intestines. TCPOBOP was dissolved in corn oil and injected intraperitoneally at 3 mg/kg once and the livers collected after 3 days for further studies. When used to block CAR activity, 100 mg/kg androstenol was injected intraperitoneally 15 min prior to the first DIM or DIE treatment. RNA from mice livers was isolated using TRIzol (Invitrogen) reagent using the manufacturer’s instructions. 3–5 µg of RNA was used to synthesize cDNA with random primers (NEBioLabs) and Maxima Reverse Transcriptase kits (Thermo Fisher Scientific). cDNA was further diluted, and 50 ng was used for SYBR green (Thermo Fisher Scientific) based qRT-PCR. Relative gene expression was calculated by the delta Ct method and normalized to 36b4 levels as loading controls. qPCR primers for gene expression analysis are listed in Supplementary Table 3.
# hCAR LBD-SRC1 protein = target: T1, hCAR LBD-SRC1 protein (Homo sapiens, UniProt Q14994); assay: Fluorescence thermal shift assay (TSA); format: binding; conditions: for stabilization of CAR-LBD-SRC1 fusion (thermal stability): dose-response 0.4-50 µM; for Tm: diindoles at 12.5 µM, APO Tm 51.5 °C, means of triplicates
# T1 construct: The human CAR LBD (Lys^108 – Ser^352) was amplified by PCR from cDNA; HIS6; made in house; host or cells: E. coli BL21(DE3)
# T1 sequence (Q14994 108-352): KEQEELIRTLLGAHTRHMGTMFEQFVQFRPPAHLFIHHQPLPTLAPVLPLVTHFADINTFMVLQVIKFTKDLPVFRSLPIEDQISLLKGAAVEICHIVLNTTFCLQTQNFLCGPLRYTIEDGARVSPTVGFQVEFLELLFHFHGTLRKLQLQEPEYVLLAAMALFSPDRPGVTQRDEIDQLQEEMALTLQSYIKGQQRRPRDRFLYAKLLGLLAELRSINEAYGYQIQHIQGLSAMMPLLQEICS
# Procedure: Purified hCAR LBD-SRC1 protein was assayed in 137 mM NaCl, 2.7 mM KCl, 10 mM Na2HPO4, and 1.8 mM KH2PO4, 0.5% DMSO, pH 7.4, at a final concentration of 2.2 µM. SYPRO Orange was used at a final concentration of 10× (Invitrogen, S6650). Each sample was divided into three 25 µL replicates. Sample solutions were dispensed into 96-well optical reaction plates (Thermo Fisher Scientific, 4306737) and sealed with optical PCR plate sheets (Thermo Fisher Scientific, AB-1170). TSA experiments were carried out using a QuantStudio 12 K Flex Real Time PCR System (Applied Biosystems). The temperature was ramped up from 25 °C to 95 °C at a rate of 0.3 °C/min, and SYPRO orange fluorescence monitored. Raw fluorescence data and melting temperatures were determined using nonlinear regression curve fitting using GraphPad Prism 9.
# hCAR = target: T2, hCAR (Homo sapiens, UniProt Q14994); assay: Bottom-up HDX-MS of hCAR with ligand; format: binding; conditions: 100 µM ligand
# T2 construct: The human CAR LBD (Lys^108 – Ser^352) was amplified by PCR from cDNA; HIS6; made in house; host or cells: E. coli BL21(DE3)
# T2 sequence (Q14994 108-352): T1 sequence (Q14994 108-352)
# Procedure: Human CAR protein was prepared at 10 µM in 100 mM ammonium acetate pH 7.25 and diluted into either equilibration buffer (10 mM phosphate buffer, pH 7.5) or deuterated reaction buffer (10 mM phosphate buffer, 150 mM NaCl, pH 7.5 in D2O). After labeling times of 1, 10 or 30 min at 25 °C, samples were mixed with equal volumes of quench buffer (100 mM phosphate buffer, pH 2.5) at 0 °C. […] HDX-MS was performed using a commercial Waters HDX system (M-class ACQUITY UPLC and Water Cyclic IMS Mass Spectrometer). Leucine enkephalin was used for mass correction, and all time points were carried out in triplicate. Samples were digested using an Enzymate BEH Pepsin column (2.1 × 30 mm, Waters) at 15 °C. Peptides were desalted on an ACQUITY UPLC BEH C18 VanGuard Pre-column (2.1 × 5 mm, Waters) and separated using an ACQUITY UPLC BEH C18 column (100 × 1 mm, Waters). ProteinLynx Global server (PLGS) and DynamX software was used for peptide identification and deuterium uptake analysis, respectively. PyMOL 2.5 was used for structural visualization.
# GST-hCAR-LBD = target: T3, GST-hCAR-LBD (Homo sapiens, UniProt Q14994); assay: LanthaScreen TR-FRET PGC1α coactivator recruitment assay; format: biochemical
# T3 construct: GST-hCAR-LBD (5 nM), terbium-labeled anti-GST antibody (5 nM); purchased Invitrogen A15141
# T3 sequence (Q14994 109-352 limits assumed): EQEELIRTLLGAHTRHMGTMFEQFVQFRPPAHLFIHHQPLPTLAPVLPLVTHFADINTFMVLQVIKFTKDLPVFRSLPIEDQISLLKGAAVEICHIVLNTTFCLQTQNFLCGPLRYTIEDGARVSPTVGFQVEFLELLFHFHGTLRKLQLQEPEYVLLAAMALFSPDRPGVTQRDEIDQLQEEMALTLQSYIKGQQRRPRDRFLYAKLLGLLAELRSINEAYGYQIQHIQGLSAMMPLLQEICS
# Procedure: LanthaScreen^TM TR-FRET hCAR coactivator assays were performed according to manufacturer’s instructions (Invitrogen, A15141). Test compounds were incubated for 2 h at room temperature with GST-hCAR-LBD (5 nM), terbium-labeled anti-GST antibody (5 nM), and Fluorescein-PGC1α coactivator peptide (125 nM). Incubations were performed in four technical replicates. TR-FRET emissions were measured using a Tecan Infinite F200 Fluorescence Microplate Reader. Results were expressed as the ratio of fluorescence intensity at 520 nm (fluorescein emission excited by terbium emissions) and 495 nm (terbium emissions).
# GAL4-hCAR LBD = target: T4, GAL4-hCAR LBD (Homo sapiens, UniProt Q14994); assay: HEK293T GAL4-hCAR dual transfection reporter assay with PK11195 (antagonist displacement); format: cell-based; conditions: for HEK293 GAL4-hCAR EC50: basal reporter activity reduced with 1 µM PK11195
# T4 construct: chimeric yeast GAL4 DBD fused to an hCAR LBD; expressed in transfected cells; host or cells: HEK293T (ATCC, CRL-3216)
# T4 sequence (Q14994 109-352 limits assumed): T3 sequence (Q14994 109-352 limits assumed)
# Description: The GAL4-hCAR, UAS-Luc, pcDNA-GAL4, pGL4-Renilla-Luc and pGEM plasmids were generously provided by Dr. David Mangelsdorf. The GAL4-hCAR plasmid encodes a constitutively expressed chimeric yeast GAL4 DBD fused to an hCAR LBD. The UAS-Luc plasmid encodes a Firefly luciferase reporter under the control of a GAL4 response element. The pcDNA plasmid encodes a constitutively expressed GAL4 DBD and was used as a control vector to determine non-specific luminescence in all HEK293T cellular reporter assays. The pGL4-Renilla-Luc plasmid encodes a constitutively expressed Renilla luciferase reporter and was used as a transfection control in the HEK293T cellular reporter assays.
# HEK293T cells (ATCC, CRL-3216) were seeded at a density of 40,000 cells per well in white flat-bottom 96-well microplates (Greiner CellStar, 655073) in Dulbecco’s Modified Eagle Medium (DMEM) (2.5 g/l glucose) supplemented with 10% stripped fetal bovine serum with 100 units/ml of penicillin and incubated for 24 h at 37 °C. Transfection was carried out using 0.3 µL/well of Lipofectamine 2000 (Thermo Fisher Scientific, 11668019). Cells were transfected with 10 ng/well of either pcDNA or GAL4-hCAR, 50 ng/well of UAS-Luc, 5 ng/well of pGL4-Renilla-Luc, and 85 ng/well of pGEM for a total of 150 ng/well of DNA. […] Cells were incubated for 16-hours to allow build-up of luciferase and then processed using the Dual-Glo Luciferase Assay System (Promega, E2940) as per the manufacturer’s instructions. Incubations were performed in four technical replicates.
# [2] = target: T5, His-tagged CAR-LBD-SRC1 fusion protein (Homo sapiens, UniProt Q14994); assay: Isothermal titration calorimetry (ITC); format: binding; conditions: 25 °C; ligand 50 μM; mean of two independent experiments
# T5 construct: The human CAR LBD (Lys^108 – Ser^352) was amplified by PCR from cDNA; HIS6; made in house; host or cells: E. coli BL21(DE3)
# T5 sequence (Q14994 108-352): T1 sequence (Q14994 108-352)
# Procedure: Purified hCAR-SRC1 protein (200–250 µM) was dissolved in 120 μL of PBS and supplemented with 0.5% DMSO. All experiments were performed in a MicroCal Auto-iTC200 instrument (Malvern Panalytical, Marlvern, United Kingdom) at 25 °C. Ligands were used at a concentration of 50 μM. Protein was titrated into cells in a series of 19 injections (injection 1 = 0.4 µL, injection 2–19 = 2 µL) 180 s apart. Control experiments performed by injection of the potein into […] yielded insignificant heats of dilution, and heat responses were subtracted. Integrated heat effects were analyzed using Microcal Origin 7 software (Malvern Instruments).
# [3] = Liver-to-body weight ratio after treatment; format: in vivo; conditions: post-treatment, compared to control
# Procedure: as §1
smiles,measurement,setting,value
"C[C@]12CC[C@@H](O)C[C@@H]1CC[C@@H]1[C@@H]2CC[C@]2(C)C=CC[C@@H]12 [And, androstenol, reference compound]",liver histology (H&E) findings,Liver histology (H&E),occasional focal inflammation and mild cholangitis
same,CAR target gene expression after pre-treatment with inverse agonist,[1]; 100 mg/kg i.p. 15 min prior to first DIM or DIE treatment,greatly reduced target gene expression
same,sult2a1 expression in liver,[1]; WT or Nr1i3-/- mice,did not show significant responses
same,cyp3a11 expression in liver,"[1]; mouse liver, with or without And pre-treatment",increase rather than a decrease
"CC(C)(c1ccc(O)cc1)c1ccc(O)cc1 [BPA, bisphenol A, reference compound]",stabilization of CAR-LBD-SRC1 fusion (thermal stability),hCAR LBD-SRC1 protein,preferential stabilization
"Clc1ccc(-c2nc3sccn3c2C=NOCc2ccc(Cl)c(Cl)c2)cc1 [CITCO, 6-(4-chlorophenyl)imidazo[2,1-b][1,3]thiazole-5-carbaldehyde-O-(3,4-dichlorobenzyl)oxime, reference compound]","deuterium uptake change, residues 235–243 (H12/AF2)",hCAR,decreased deuterium uptake
same,"deuterium uptake difference, amino acids 217–234 (H11)",hCAR,> 20%
same,"difference in deuterium uptake compared to apo hCAR, amino acids 51–65 (H3)",hCAR,> 20%
same,stabilization of CAR-LBD-SRC1 fusion (thermal stability),hCAR LBD-SRC1 protein,no effect on thermal stability
same,PGC1α cofactor recruitment,GST-hCAR-LBD,able to increase PGC1α recruitment beyond ‘constitutive’ levels
"CCC(c1c[nH]c2ccccc12)c1c[nH]c2ccccc12 [DIP, 3,3’-diindolylpropane]",HEK293 GAL4-hCAR EC50,GAL4-hCAR LBD,Ambiguous
same,Kd,[2],6 µM
same,Tm,hCAR LBD-SRC1 protein,59.1 °C
"Clc1cnc(Oc2ccc(Oc3ncc(Cl)cc3Cl)cc2)c(Cl)c1 [TCPOBOP, 1,4-bis-[2-(3,5,-dichloropyridyloxy)] benzene, reference compound]",liver weight / liver-to-body weight ratio,[3],significantly increased
same,mCAR target gene activation,"[1]; WT male mice, 3 mg/kg i.p. once, livers after 3 days",highly activate mCAR target genes
"CC(C)C(c1c[nH]c2ccccc12)c1c[nH]c2ccccc12 [iDIB, 3,3’-diindolyl-iso-butane]",HEK293 GAL4-hCAR EC50,GAL4-hCAR LBD,Ambiguous
same,Tm,hCAR LBD-SRC1 protein,58.3 °C
CCCC(c1c[nH]c2ccccc12)c1c[nH]c2ccccc12 [nDIB],EC50,GAL4-hCAR LBD; read-out: HEK293 GAL4-hCAR EC50,2.36 µM
same,Kd,[2],0.79 µM and 0.78 µM
same,Tm,hCAR LBD-SRC1 protein,57.7 °C
